Literature values in patent US20050266098A1, “Composition for treatment of a hydrofluoric acid burn” (priority 2004, published 2005).

Assays:
hydrofluoric acid injury = conditions: soaks as source of calcium ions
[1] = 18° C.

In the case of CC(=O)[O-].CC(=O)[O-].[Ca+2] [Calcium acetate], the “epidermal response resulting from the treatment” value (hydrofluoric acid injury) is given as “negative epidermal response”.

For CC(=O)CCC(=O)O [Levulinic acid], the pKa [1] is given as 4.64 and the pH ([1]; 98% aqueous solution) is given as 6.2.
